Structures can show the parent of a compound that is named as a salt.
Experiments:
DNA-PK = DNA-PK (Homo sapiens (Human), UniProt P78527); assay: DNA-PK Enzyme-Linked Immunosorbent Assay (phosphorylation of GST-p53 (1-101) peptide); format: biochemical; conditions: ELISA
How it was run: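 Inhibition measured by 450 nm absorbance after HRP/TMB detection of phospho-Ser15 on immobilized GST-p53 (1-101). The kinase reaction used 0.1 μg/mL DNA-PK and 20 μM ATP, 1 h at 25 °C. Ten 3-fold compound dilutions, top final concentration 100 nM.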

ATM = ATM (Homo sapiens (Human), UniProt Q13315); assay: ATM in Cell Western Assay (pKAP1 in etoposide-treated MCF-7 cells); format: cell-based
ATM, sequence (Q13315 whole entry): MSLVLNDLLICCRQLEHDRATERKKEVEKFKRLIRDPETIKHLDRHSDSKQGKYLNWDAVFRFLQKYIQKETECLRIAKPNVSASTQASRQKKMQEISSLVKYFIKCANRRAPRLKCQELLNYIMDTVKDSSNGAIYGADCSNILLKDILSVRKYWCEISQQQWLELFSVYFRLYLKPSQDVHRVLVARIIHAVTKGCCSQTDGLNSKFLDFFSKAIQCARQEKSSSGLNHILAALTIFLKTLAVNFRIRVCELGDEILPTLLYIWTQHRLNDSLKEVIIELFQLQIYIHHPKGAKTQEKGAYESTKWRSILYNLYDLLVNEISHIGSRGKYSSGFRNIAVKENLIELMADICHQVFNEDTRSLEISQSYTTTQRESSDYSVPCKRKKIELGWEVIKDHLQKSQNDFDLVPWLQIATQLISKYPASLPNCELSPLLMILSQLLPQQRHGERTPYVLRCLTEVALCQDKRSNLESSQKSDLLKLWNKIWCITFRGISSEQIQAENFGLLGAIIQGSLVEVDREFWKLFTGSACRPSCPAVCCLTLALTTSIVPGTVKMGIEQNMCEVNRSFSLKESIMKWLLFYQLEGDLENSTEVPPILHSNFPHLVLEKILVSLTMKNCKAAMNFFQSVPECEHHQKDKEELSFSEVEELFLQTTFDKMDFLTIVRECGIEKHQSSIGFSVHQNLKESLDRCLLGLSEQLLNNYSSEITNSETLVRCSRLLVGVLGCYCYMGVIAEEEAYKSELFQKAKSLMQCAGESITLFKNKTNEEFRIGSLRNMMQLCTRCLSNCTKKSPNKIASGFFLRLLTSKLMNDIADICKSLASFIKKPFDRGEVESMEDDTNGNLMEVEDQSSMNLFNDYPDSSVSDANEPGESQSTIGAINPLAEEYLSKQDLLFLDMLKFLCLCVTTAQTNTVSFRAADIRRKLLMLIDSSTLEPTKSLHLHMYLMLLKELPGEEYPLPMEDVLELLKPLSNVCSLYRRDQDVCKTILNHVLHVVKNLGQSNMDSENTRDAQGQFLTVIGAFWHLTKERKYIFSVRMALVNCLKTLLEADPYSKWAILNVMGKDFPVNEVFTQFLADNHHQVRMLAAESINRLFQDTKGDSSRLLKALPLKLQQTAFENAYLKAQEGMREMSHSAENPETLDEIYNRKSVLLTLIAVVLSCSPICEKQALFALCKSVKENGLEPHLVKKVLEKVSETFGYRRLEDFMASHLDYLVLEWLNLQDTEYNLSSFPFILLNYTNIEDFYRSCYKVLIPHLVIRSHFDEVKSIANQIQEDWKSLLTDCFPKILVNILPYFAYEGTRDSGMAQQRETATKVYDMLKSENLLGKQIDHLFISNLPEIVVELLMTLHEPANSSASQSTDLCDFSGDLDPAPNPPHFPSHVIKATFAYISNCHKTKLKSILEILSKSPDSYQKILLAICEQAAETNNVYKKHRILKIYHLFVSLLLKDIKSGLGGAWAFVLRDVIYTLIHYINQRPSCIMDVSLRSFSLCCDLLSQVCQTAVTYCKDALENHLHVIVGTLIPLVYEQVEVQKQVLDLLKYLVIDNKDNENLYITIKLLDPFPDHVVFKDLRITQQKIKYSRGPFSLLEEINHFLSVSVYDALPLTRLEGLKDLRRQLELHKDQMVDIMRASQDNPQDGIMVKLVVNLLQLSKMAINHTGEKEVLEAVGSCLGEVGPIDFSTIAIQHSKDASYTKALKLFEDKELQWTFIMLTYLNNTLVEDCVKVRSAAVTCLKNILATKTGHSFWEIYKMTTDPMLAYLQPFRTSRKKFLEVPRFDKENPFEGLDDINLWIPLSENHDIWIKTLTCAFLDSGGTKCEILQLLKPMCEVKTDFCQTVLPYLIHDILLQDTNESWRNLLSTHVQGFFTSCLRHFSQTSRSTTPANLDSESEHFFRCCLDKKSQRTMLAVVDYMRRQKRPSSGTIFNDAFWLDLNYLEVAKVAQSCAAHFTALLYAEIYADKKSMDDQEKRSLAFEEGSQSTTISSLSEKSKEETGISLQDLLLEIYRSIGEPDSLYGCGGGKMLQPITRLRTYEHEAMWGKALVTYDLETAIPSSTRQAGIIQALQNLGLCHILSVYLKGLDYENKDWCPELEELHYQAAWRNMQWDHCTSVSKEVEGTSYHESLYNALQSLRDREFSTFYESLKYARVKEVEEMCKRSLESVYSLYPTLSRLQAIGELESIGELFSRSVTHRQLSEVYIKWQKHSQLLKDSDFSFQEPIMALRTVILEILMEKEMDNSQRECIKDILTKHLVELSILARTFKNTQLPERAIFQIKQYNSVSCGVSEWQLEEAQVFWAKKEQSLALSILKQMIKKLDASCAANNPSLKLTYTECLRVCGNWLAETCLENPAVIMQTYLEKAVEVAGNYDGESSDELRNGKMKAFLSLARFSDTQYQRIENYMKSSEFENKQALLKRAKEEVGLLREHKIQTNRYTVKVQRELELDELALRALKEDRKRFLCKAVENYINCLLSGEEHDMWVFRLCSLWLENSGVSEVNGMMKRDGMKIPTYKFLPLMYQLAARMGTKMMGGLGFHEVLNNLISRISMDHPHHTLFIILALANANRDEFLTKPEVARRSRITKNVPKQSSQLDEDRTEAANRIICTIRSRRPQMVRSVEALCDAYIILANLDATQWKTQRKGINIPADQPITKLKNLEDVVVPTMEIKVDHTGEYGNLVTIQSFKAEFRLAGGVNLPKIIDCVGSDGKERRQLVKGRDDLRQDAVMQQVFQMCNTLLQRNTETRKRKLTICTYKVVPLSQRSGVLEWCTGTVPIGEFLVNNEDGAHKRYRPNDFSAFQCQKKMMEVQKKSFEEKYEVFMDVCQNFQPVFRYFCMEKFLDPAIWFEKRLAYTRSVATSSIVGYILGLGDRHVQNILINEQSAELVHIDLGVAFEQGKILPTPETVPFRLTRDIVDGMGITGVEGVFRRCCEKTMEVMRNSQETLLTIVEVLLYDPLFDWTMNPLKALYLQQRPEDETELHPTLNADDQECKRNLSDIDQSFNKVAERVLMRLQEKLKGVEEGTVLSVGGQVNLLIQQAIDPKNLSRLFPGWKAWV
How it was run: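 After paraformaldehyde fixation and Triton X-100 permeabilization, immunostained plates were read by infrared scanning (ODYSSEY CLx). Compound was given as 10 doses, 3-fold dilutions from a 1 μM final top concentration.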

[1] = MCF-7 cells, etoposide 100 μM, 1 hr, pKAP1 readout
[2] = pKAP1 in etoposide-treated MCF-7 cells

| Compound | IC50 (DNA-PK; ATP 20 μM) | IC50 (ATM; [1]) | IC50 (DNA-PK; 20 μM ATP) | IC50 (ATM; [2]) |
| --- | --- | --- | --- | --- |
| Cc1ccc(N2CC3(C2)C(=O)N(C)c2cnc4cc(F)c(-c5cnc(OCCNC(C)C)c(NS(C)(=O)=O)c5)cc4c23)cc1 [Example 526, N-(5-(7′-Fluoro-3′-methyl-2′-oxo-1-(p-tolyl)-2′,3′-dihydrospiro[azetidine-3,1′-pyrrolo[2,3-c]quinolin]-8′-yl)-2-(2-(isopropylamino)ethoxy)pyridin-3-yl)methanesulfonamide hydrochloride] |  |  | < 0.5 nM | 1 to 100 nM |
| CCS(=O)(=O)Nc1cc(-c2cc3c4c(cnc3cc2F)N(C)C(=O)C42CN(c3ccccc3)C2)cnc1OCCNC(C)C [Example 522, N-(5-(7′-Fluoro-3′-methyl-2′-oxo-1-phenyl-2′,3′-dihydrospiro[azetidine-3,1′-pyrrolo[2,3-c]quinolin]-8′-yl)-2-(2-(isopropylamino)ethoxy)pyridin-3-yl)ethanesulfonamide hydrochloride] |  |  | 0.5 to 1 nM | 1 to 100 nM |
| COc1cc(-c2ccc3ncc4c(c3c2)C2(CC2)C(=O)N4C)cnc1OCCCN(C)C [Example 54, 8′-(6-(3-(Dimethylamino)propoxy)-5-methoxypyridin-3-yl)-3′-methylspiro[cyclopropane-1,1′-pyrrolo[2,3-c]quinolin]-2′(3′-H)-one] | > 100 nM | 0.5 to 1 nM |  |  |
| CN(C)CCCOc1ncc(-c2ccc3ncc4c(c3c2)C2(CCC2)C(=O)N4C)cc1NS(=O)(=O)N1CCOCC1 [Example 136, N-(2-(3-(Dimethylamino)propoxy)-5-(3′-methyl-2′-oxo-2′,3′-dihydrospiro [cyclobutane-1,1′-pyrrolo[2,3-c]quinolin]-8′-yl)pyridin-3-yl)morpholine-4-sulfonamide hydrochloride] | 1 to 100 nM | 1 to 100 nM |  |  |
| CN1C(=O)C2(CCC2)c2c1cnc1ccc(-c3cnc(OCCCN4CCCCC4)c(NS(=O)(=O)c4cncs4)c3)cc21 [Example 199, N-(5-(3′-Methyl-2′-oxo-2′,3′-dihydrospiro[cyclobutane-1,1′-pyrrolo[2,3-c]quinolin]-8′-yl)-2-(3-(piperidin-1-yl)propoxy)pyridin-3-yl)thiazole-5-sulfonamide hydrochloride] | < 0.5 nM | 1 to 100 nM |  |  |
| CCN(C)S(=O)(=O)Nc1cc(-c2ccc3ncc4c(c3c2)C2(CCC2)C(=O)N4C)cnc1N1CCC(N2CCCCC2)CC1 [Example 212, 8′-(6-{[1,4′-Bipiperidine]-1′-yl}-5-[(ethyl(methyl)sulfamoyl)amino}pyridin-3-yl)-3′-methyl-2′,3′-dihydrospiro[cyclobutane-1,1′-pyrrolo[2,3-c]quinoline]-2′-one] | 1 to 100 nM | 1 to 100 nM |  |  |
| CC(C)NCCOc1ncc(-c2cc3c4c(cnc3cc2F)N(C)C(=O)C42CN(c3ccc(Cl)cc3)C2)cc1NS(C)(=O)=O [Example 523, N-(5-(1-(4-Chlorophenyl)-7′-fluoro-3′-methyl-2′-oxo-2′,3′-dihydrospiro[azetidine-3,1′-pyrrolo[2,3-c]quinolin]-8′-yl)-2-(2-(isopropylamino)ethoxy)pyridin-3-yl)methanesulfonamide hydrochloride] |  |  | < 0.5 nM | 1 to 100 nM |
| COCCN(CCOC)S(=O)(=O)Nc1cc(-c2ccc3ncc4c(c3c2)C2(CCC2)C(=O)N4C)cnc1OCCCN(C)C [Example 181, 8′-(5-{[Bis(2-methoxyethyl)sulfamoyl]amino}-6-[3-(dimethylamino)propoxy]pyridine-3-yl)-3′-methyl-2′,3′-dihydrospiro [cyclobutane-1,1′-pyrrolo[2,3-c]quinoline]-2′-one] | 1 to 100 nM | 1 to 100 nM |  |  |
| CCS(=O)(=O)Nc1cc(-c2ccc3ncc4c(c3c2)C2(CCC2)C(=O)N4C)cnc1N1CC(N(C)C)C1 [Example 318, N-(2-(3-(Dimethylamino)azetidin-1-yl)-5-(3′-methyl-2′-oxo-2′,3′-dihydrospiro [cyclobulane-1,1′-pyrrolo[2,3-c]quinolin]-8′-yl)pyridin-3-yl)etlianesulfonamide] | 0.5 to 1 nM | 1 to 100 nM |  |  |
| CN1CCCC(COc2ncc(-c3ccc4ncc5c(c4c3)C3(CC3)C(=O)N5C)cc2NS(=O)(=O)C2CC2)C1 (stereo not shown) [Example 86, N-(5-(3′-Methyl-2′-oxo-2′,3′-dihydrospiro[cyclopropane-1,1′-pyrrolo[2,3-c]quinolin]-8′-yl)-2-((1-methylpiperidin-3-yl)methoxy)pyridin-3-yl)cyclopropanesulfonamide] | 1 to 100 nM | 1 to 100 nM |  |  |
| CN1CCN(c2ncc(-c3ccc4ncc5c(c4c3)C3(CCC3)C(=O)N5C)cc2NS(C)(=O)=O)CC1 [Example 229, N-(5-(3′-Methyl-2′-oxo-2′,3′-dihydrospiro[cyclobutane-1,1′-pyrrolo[2,3-c]quinolin]-8′-yl)-2-(4-methylpiperazin-1-yl)pyridin-3-yl)methanesulfonamide] | < 0.5 nM | 0.5 to 1 nM |  |  |
| COc1ccc(N2CC3(C2)C(=O)N(C)c2cnc4cc(F)c(-c5cnc(OCCNC(C)C)c(NS(C)(=O)=O)c5)cc4c23)cc1 [Example 533, N-(5-(7′-Fluoro-1-(4-methoxyphenyl)-3 methyl-2′-oxo-2′,3′-dihydrospiro [azetidine-3,1′-pyrrolo[2,3-c]quinolin]-8′-yl)-2-(2-(isopropylamino)ethoxy)pyridin-3-yl)methanesulfonamide] |  |  | 1 to 100 nM | 1 to 100 nM |
| CCS(=O)(=O)Nc1cc(-c2cc3c4c(cnc3cc2F)N(C)C(=O)C42CN(C(C)C)C2)cnc1OCCNC(C)C [Example 483] |  |  | 0.5 to 1 nM | 1 to 100 nM |
| CN1C(=O)C2(CCC2)c2c1cnc1ccc(-c3cnc(N4CCC(N5CCOCC5)CC4)c(NS(=O)(=O)C4CC4)c3)cc21 [Example 356, N-(5-(3′-Methyl-2′-oxo-2′,3′-dihydrospiro[cyclobutane-1,1′-pyrrolo[2,3-c]quinolin]-8′-yl)-2-(4-morpholinopiperidin-l-yl)pyridin-3-yl)cyclopropanesulfonamide hydrochloride] |  |  | 0.5 to 1 nM | < 0.5 nM |

The remaining lines, values ahead:

| IC50 (DNA-PK; ATP 20 μM) | IC50 (ATM; [1]) | IC50 (DNA-PK; 20 μM ATP) | IC50 (ATM; [2]) | Compound |
| --- | --- | --- | --- | --- |
| 1 to 100 nM | 1 to 100 nM |  |  | Cc1cc(-c2ccc3ncc4c(c3c2)C2(CC2)C(=O)N4C)cnc1OCCCN(C)C [Example 57, 8′-(6-(3-(Dimethylamino)propoxy)-5-methylpyridin-3-yl)-3′-methylspiro[cyclopropane-1,1′-pyrrolo[2,3-c]quinolin]-2′(3′-H)-one] |
| 0.5 to 1 nM | 1 to 100 nM |  |  | CN(C)CCCOc1ncc(-c2ccc3ncc4c(c3c2)C2(CC2)C(=O)N4C)cc1NS(=O)(=O)C1COC1 [Example 76] |
|  |  | 1 to 100 nM | 1 to 100 nM | CN(C)CCCOc1ncc(-c2ccc3ncc4c(c3c2)C2(CC(F)(F)C2)C(=O)N4C)cc1NS(C)(=O)=O [Example 554, N-(5-(3,3-Difluoro-3′-methyl-2′-oxo-2′,3′-dihydrospiro[cyclobutane-1,1′-pyrrolo[2,3-c]quinolin]-8′-yl)-2-(3-(dimethylamino)propoxy)pyridin-3-yl)methanesulfonamide] |
| < 0.5 nM | 1 to 100 nM |  |  | CN(C)CCCOc1ncc(-c2ccc3ncc4c(c3c2)C2(CCC2)C(=O)N4C)cc1NS(=O)(=O)CC#N [Example 273, 1-Cyano-N-(2-(3-(dimethylamino)propoxy)-5-(3′-methyl-2′-oxo-2′,3′-dihydrospiro[cyclobutane-1,1′-pyrrolo[2,3-c]quinolin]-8′-yl)pyridin-3-yl)methanesulfonamide] |
| < 0.5 nM | 1 to 100 nM |  |  | CN(C)CCCOc1ncc(-c2ccc3ncc4c(c3c2)C2(CCC2)C(=O)N4C)cc1NS(=O)(=O)c1cncs1 [Example 169, N-(2-(3-(Dimethylamino)propoxy)-5-(3′-methyl-2′-oxo-2′,3′-dihydrospiro [cyclobutane-1,1′-pyrrolo [2,3-c]quinolin]-8′-230 yl)pyridin-3-yl)thiazole-5-sulfonamide hydrochloride] |
| 1 to 100 nM | 1 to 100 nM |  |  | CN(C)CCCOc1ncc(-c2cc3c4c(cnc3cc2F)N(C)C(=O)C42CC2)cc1NS(=O)(=O)c1ccc(Cl)cc1 [Example 129, 4-Chloro-N-(2-(3-(dimethylamino)propoxy)-5-(7′-fluoro-3′-methyl-2′-oxo-2′,3′-dihydrospiro[cyclopropane-1,1′-pyrrolo[2,3-c]quinolin]-8′-yl)pyridin-3-yl) benzenesulfonamide hydrochloride] |
| < 0.5 nM | 0.5 to 1 nM |  |  | CN(C)CCCOc1ncc(-c2ccc3ncc4c(c3c2)C2(CC2)C(=O)N4C)cc1NS(=O)(=O)c1ccc(F)cc1 [Example 88, N-(2-(3-(Dimethylamino)propoxy)-5-(3′-methyl-2′-oxo-2′,3′-dihydrospiro [cyclopropane-1,1′-pyrrolo[2,3-c]quinolin]-8′-yl)pyridin-3-yl)-4-fluorobenzenesulfonamide] |
| 1 to 100 nM | 1 to 100 nM |  |  | CN(C)CCCOc1ncc(-c2ccc3ncc4c(c3c2)C2(CC2)C(=O)N4CC2COC2)cc1NS(=O)(=O)c1ccccc1 [Example 37, N-(2-(3-(Dimethylamino)propoxy)-5-(3′-(oxetan-3-ylmethyl)-2′-oxo-2′-3′-dihydrospiro [cyclopropane-1,1′-pyrrolo[2,3-c]quinolin]-8′-yl)pyridin-3-yl)benzenesulfonamide] |
| 1 to 100 nM | 1 to 100 nM |  |  | CN(C)CCCOc1ncc(-c2ccc3ncc4c(c3c2)C2(CCC2)C(=O)N4C)cc1NS(=O)(=O)c1cc(F)cc(C(F)(F)F)c1 [Example 156, N-(2-(3-(Dimethylamino)propoxy)-5-(3′-methyl-2′-oxo-2′,3′-dihydrospiro[cyclobulane-1,1′-pyrrolo[2,3-c]quinolin]-8′-yl)pyridin-3-yl)-3-fluoro-5-(trifluoromethyl)benzenesulfonamide hydrochloride] |
